# From US10745382B2 (BRISTOL-MYERS SQUIBB COMPANY, priority 2015, dated 2020)
# Target: T1, PD-1/PD-L1 (Homo sapiens, UniProt Q9NZQ7)
# T1 construct: made in house; host or cells: HEK293T
# Assay: PD-1/PD-L1 Homogenous Time-Resolved Fluorescence (HTRF) binding assay
# Details: PD-L1-His 10 nM, PD-1-Ig 20 nM; value given as range class; read-out: Range or IC50
# In short: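 Binding measured in dPBS with 0.1% BSA and 0.05% Tween-20, detected by HTRF with europium cryptate anti-Ig (1 nM final) and APC anti-His (20 nM final) added over the binding reaction. Counter-assays used human PD-1-Ig/PD-L2-His (20 and 5 nM) and CD80-His/PD-L1-Ig (100 and 10 nM).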
# T1 sequence (Q9NZQ7 with tags, fused parts or gaps): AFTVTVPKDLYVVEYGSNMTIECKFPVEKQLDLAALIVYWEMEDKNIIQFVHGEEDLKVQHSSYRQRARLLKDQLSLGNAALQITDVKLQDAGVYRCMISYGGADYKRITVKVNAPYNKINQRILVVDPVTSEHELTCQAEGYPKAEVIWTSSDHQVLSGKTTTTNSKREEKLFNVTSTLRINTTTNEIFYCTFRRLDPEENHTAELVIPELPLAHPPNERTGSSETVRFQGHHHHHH
row,IC50,SMILES
1,0.21 to 10 nM,"CCN(CC)C(=O)C1CCCN(CCCOc2cccc(-c3cccc(COc4cc(OCc5cncc(C#N)c5)c(CN5CCCC[C@H]5C(=O)O)cc4Cl)c3C)c2C)C1 (stereo partly drawn) [Example 2208, (2S)-1-(5-chloro-2-((5-cyanopyridin-3-yl)methoxy)-4-((3′-(3-(3-(diethylcarbamoyl)piperidin-1-yl)propoxy)-2,2′-dimethylbiphenyl-3-yl)methoxy)benzyl)piperidine-2-carboxylic Acid]"
2,0.21 to 10 nM,"Cc1c(CCCCN2CC[C@@H](O)C2)cccc1-c1cccc(COc2cc(OCc3cncc(C#N)c3)c(CNC(CO)CO)cc2Cl)c1C [Example 4064, (R)-5-((4-chloro-2-(((1,3-dihydroxypropan-2-yl)amino)methyl)-5-((3′-(4-(3-hydroxypyrrolidin-1-yl)butyl)-2,2′-dimethyl-[1,1′-biphenyl]-3-yl)methoxy)phenoxy)methyl)nicotinonitrile]"
3,0.21 to 10 nM,"Cc1c(COc2cc(OCc3cncc(C#N)c3)c(C(=O)NC(C)(CO)CO)cc2Cl)cccc1-c1cccc(OCCCN2CC[C@@H](O)C2)c1C [Example 2378, (R)-5-chloro-2-((5-cyanopyridin-3-yl)methoxy)-N-(1,3-dihydroxy-2-methylpropan-2-yl)-4-((3′-(3-(3-hydroxypyrrolidin-1-yl)propoxy)-2,2′-dimethyl-[1,1′-biphenyl]-3-yl)methoxy)benzamide]"
4,0.21 to 10 nM,"Cc1c(COc2cc(OCc3cncc(C#N)c3)c(CN3CCCC[C@H]3C(=O)O)cc2Cl)cccc1-c1cccc(OCCCN2CCC[C@@H](C(=O)O)C2)c1C [Example 2205, (2S)-1-(4-((3′-(3-((R)-3-carboxypiperidin-1-yl)propoxy)-2,2′-dimethylbiphenyl-3-yl)methoxy)-5-chloro-2-((5-cyanopyridin-3-yl)methoxy)benzyl)piperidine-2-carboxylic Acid]"
5,0.21 to 10 nM,"Cc1c(COc2cc(OCc3cncc(C#N)c3)c(CN3CCCC[C@H]3C(=O)O)cc2Cl)cccc1-c1cccc(OCCCN2CCCC[C@H]2C(=O)O)c1C [Example 2268, (2S)-1-(3-(3′-((4-(((S)-2-carboxypiperidin-1-yl)methyl)-2-chloro-5-((5-cyanopyridin-3-yl)methoxy)phenoxy)methyl)-2,2′-dimethylbiphenyl-3-yloxy)propyl)piperidine-2-carboxylic Acid]"
6,0.21 to 10 nM,"Cc1c(COc2cc(OCc3cncc(C#N)c3)c(CN3CCC[C@@H]3CO)cc2Cl)cccc1-c1cccc(OCCCN2CCC[C@@H]2CO)c1F [Example 1534, 5-((4-chloro-5-((2′-fluoro-3′-(3-((R)-2-(hydroxymethyl)pyrrolidin-1-yl)propoxy)-2-methyl-[1,1′-biphenyl]-3-yl)methoxy)-2-(((R)-2-(hydroxymethyl)pyrrolidin-1-yl)methyl)phenoxy)methyl)nicotinonitrile]"
7,0.21 to 10 nM,"CCOC(=O)C1(CO)CCN(CCCOc2cccc(-c3cccc(COc4cc(OCc5cncc(C#N)c5)c(CN5CCCC[C@H]5C(=O)O)cc4Cl)c3C)c2Cl)C1 (stereo partly drawn) [Example 1101, (2S)-1-(5-chloro-4-((2′-chloro-3′-(3-(3-(ethoxycarbonyl)-3-(hydroxymethyl)pyrrolidin-1-yl)propoxy)-2-methyl-[1,1′-biphenyl]-3-yl)methoxy)-2-((5-cyanopyridin-3-yl)methoxy)benzyl)piperidine-2-carboxylic Acid]"
8,0.21 to 10 nM,"Cc1c(COc2cc(OCc3cncc(C#N)c3)c(CN[C@H](CO)C(=O)O)cc2Cl)cccc1-c1cccc(OCCCN2CC[C@@H](O)C2)c1 [Example 1016, (R)-2-((5-chloro-2-((5-cyanopyridin-3-yl)methoxy)-4-((3′-(3-((R)-3-hydroxypyrrolidin-1-yl)propoxy)-2-methyl-[1,1′-biphenyl]-3-yl)methoxy)benzyl)amino)-3-hydroxypropanoic Acid]"
9,10 to 100 nM,"Cc1c(COc2cc(OCc3cncc(C#N)c3)c(CN[C@@](C)(CO)C(=O)O)cc2Cl)cccc1-c1cccc(OCCN2CCOCC2)c1 [Example 1002, (S)-2-((5-chloro-2-((5-cyanopyridin-3-yl)methoxy)-4-((2-methyl-3′-(2-morpholinoethoxy)-[1,1′-biphenyl]-3-yl)methoxy)benzyl)amino)-3-hydroxy-2-methylpropanoic Acid]"
10,0.21 to 10 nM,"Cc1c(COc2cc(OCc3cncc(C(=N)N4CC[C@@H](O)C4)c3)c(CNC(C)(CO)CO)cc2Cl)cccc1-c1cccc(OCCCN2CC[C@@H](O)C2)c1Cl [Example 2105, 2-((5-chloro-4-((2′-chloro-3′-(3-((R)-3-hydroxypyrrolidin-1-yl)propoxy)-2-methyl-[1,1′-biphenyl]-3-yl)methoxy)-2-((5-(((R)-3-hydroxypyrrolidin-1-yl)(imino)methyl)pyridin-3-yl)methoxy)benzyl)amino)-2-methylpropane-1,3-diol]"
11,100 to 2000 nM,"CCN(CC)C(=O)c1cccc(-c2cccc(COc3cc(OCc4cncc(C#N)c4)c(CN4CCOC[C@H]4C(=O)O)cc3Cl)c2C)c1C [Example 4046, (S)-4-(5-chloro-2-((5-cyanopyridin-3-yl)methoxy)-4-((3′-(diethylcarbamoyl)-2,2′-dimethyl-[1,1′-biphenyl]-3-yl)methoxy)benzyl)morpholine-3-carboxylic Acid]"
12,0.21 to 10 nM,"Cc1c(COc2cc(OCc3cncc(C#N)c3)c(CN3CCCCC3CO)cc2Cl)cccc1-c1cccc(OCCCN2CCCCC2CO)c1C (stereo not drawn) [Example 2256, 5-((4-chloro-2-((2-(hydroxymethyl)piperidin-1-yl)methyl)-5-((3′-(3-(2-(hydroxymethyl)piperidin-1-yl)propoxy)-2,2′-dimethylbiphenyl-3-yl)methoxy)phenoxy)methyl)nicotinonitrile]"
13,0.21 to 10 nM,"C=CC(=O)NCCCOc1cccc(-c2cccc(COc3cc(OCc4cncc(C#N)c4)c(CN[C@H](CO)C(=O)O)cc3Cl)c2C)c1 [Example 1021, (R)-2-((4-((3′-(3-acrylamidopropoxy)-2-methyl-[1,1′-biphenyl]-3-yl)methoxy)-5-chloro-2-((5-cyanopyridin-3-yl)methoxy)benzyl)amino)-3-hydroxypropanoic Acid]"
14,0.21 to 10 nM,"Cc1c(COc2cc(OCc3cncc(C#N)c3)c(CN[C@@](C)(CO)C(=O)O)cc2Cl)cccc1-c1cccc(O[C@@H](C)CCN2CC[C@@H](O)C2)c1Cl [Example 1521, (S)-2-((5-chloro-4-((2′-chloro-3′-(((S)-4-((R)-3-hydroxypyrrolidin-1-yl)butan-2-yl)oxy)-2-methyl-[1,1′-biphenyl]-3-yl)methoxy)-2-((5-cyanopyridin-3-yl)methoxy)benzyl)amino)-3-hydroxy-2-methylpropanoic acid]"
15,0.21 to 10 nM,"Cc1cc(OCc2cccc(-c3cccc(OCCCN4CC[C@@H](O)C4)c3C)c2C)cc(OCc2cncc(C#N)c2)c1CN1CCCC[C@H]1C(=O)O [Example 4086, (S)-1-(2-((5-cyanopyridin-3-yl)methoxy)-4-((3′-(3-((R)-3-hydroxypyrrolidin-1-yl)propoxy)-2,2′-dimethyl-[1,1′-biphenyl]-3-yl)methoxy)-6-methylbenzyl)piperidine-2-carboxylic Acid]"
16,0.21 to 10 nM,"Cc1c(COc2cc(OCc3cncc(C#N)c3)c(CN[C@@](C)(CO)C(=O)O)cc2Cl)cccc1-c1cccc(OCCCN2CCC(O)(CC(=O)O)C2)c1C (stereo partly drawn) [Example 1517, (2S)-2-((4-((3′-(3-(3-(carboxymethyl)-3-hydroxypyrrolidin-1-yl)propoxy)-2,2′-dimethyl-[1,1′-biphenyl]-3-yl)methoxy)-5-chloro-2-((5-cyanopyridin-3-yl)methoxy)benzyl)amino)-3-hydroxy-2-methylpropanoic acid]"
17,0.21 to 10 nM,"Cc1c(COc2cc(OCc3cncc(C#N)c3)c(CN3CCCC[C@H]3C(=O)O)cc2Cl)cccc1-c1cccc(OCCCN2CCC[C@@H](O)C2)c1C [Example 2223, (2S)-1-(5-chloro-2-((5-cyanopyridin-3-yl)methoxy)-4-((3′-(3-((R)-3-hydroxypiperidin-1-yl)propoxy)-2,2′-dimethylbiphenyl-3-yl)methoxy)benzyl)piperidine-2-carboxylic Acid]"
18,0.21 to 10 nM,"Cc1c(OCCCN2CC[C@@H](O)C2)cccc1-c1cccc(COc2cc(OCC3CC3(F)F)c(CNC(CO)CO)cc2Cl)c1Cl (stereo partly drawn) [Example 2320, 2-((5-chloro-4-((2-chloro-3′-(3-((R)-3-hydroxypyrrolidin-1-yl)propoxy)-2′-methyl-[1,1′-biphenyl]-3-yl)methoxy)-2-((2,2-difluorocyclopropyl)methoxy)benzyl)amino)propane-1,3-diol]"
19,10 to 100 nM,"Cc1c(COc2cc(OCc3cncc(C#N)c3)c(CN[C@H](CO)C(=O)O)cc2Cl)cccc1-c1cccc(OCCN2CCOCC2)c1 [Example 1001, (R)-2-((5-chloro-2-((5-cyanopyridin-3-yl)methoxy)-4-((2-methyl-3′-(2-morpholinoethoxy)-[1,1′-biphenyl]-3-yl)methoxy)benzyl)amino)-3-hydroxypropanoic Acid]"
20,0.21 to 10 nM,"Cc1c(COc2cc(OCc3cncc(C#N)c3)c(C(C)N[C@@H](CO)C(=O)O)cc2Cl)cccc1-c1cccc(OCCCN2CC[C@@H](O)C2)c1C (stereo partly drawn) [Example 4141, (1-(5-chloro-2-((5-cyanopyridin-3-yl)methoxy)-4-((3′-(3-((R)-3-hydroxypyrrolidin-1-yl)propoxy)-2,2′-dimethyl-[1,1′-biphenyl]-3-yl)methoxy)phenyl)ethyl)-L-serine]"
21,0.21 to 10 nM,"Cc1c(COc2cc(OCc3cncc(C#N)c3)c(CNC(CO)CO)cc2Cl)cccc1-c1cccc(OCCCN2CCC[C@H](CO)C2)c1C [Example 2296, (S)-5-((4-chloro-2-(((1,3-dihydroxypropan-2-yl)amino)methyl)-5-((3′-(3-(3-(hydroxymethyl)piperidin-1-yl)propoxy)-2,2′-dimethyl-[1,12′-biphenyl]-3-yl)methoxy)phenoxy)methyl)nicotinonitrile]"
